Values after ≈ are worked out from the molar mass of the structure shown. Active and inactive are the calls of the source. The calls are words filed in the database; no cut-off is given here.
Tests used:
[1] = Selectivity index, ratio of IC50 for HEK293 cells to IC50 for human MCF7 cells; assay type: toxicity; conditions: HEK293 cells versus MCF7 cells, read-out: Ratio IC50
MCF7 [2] = experiment: Cytotoxicity against human MCF7 cells assessed as inhibition of cell growth incubated for 48 hrs by SRB assay; assay type: functional, cell-based; conditions: MCF7, 48 h
HCT-116 [3] = experiment: Cytotoxicity against human HCT-116 cells assessed as inhibition of cell growth incubated for 48 hrs by SRB assay; assay type: functional, cell-based; conditions: HCT-116, 48 h
MCF7 [4] = experiment: Cytotoxicity against human MCF7 cells assessed as inhibition of cell growth at 20 uM incubated for 48 hrs by SRB assay relative to control; assay type: functional
HCT-116 [5] = experiment: Cytotoxicity against human HCT-116 cells assessed as inhibition of cell growth at 20 uM incubated for 48 hrs by SRB assay relative to control; assay type: functional
[6] = Selectivity index, ratio of IC50 for HEK293 cells to IC50 for human HCT-116 cells; assay type: toxicity; conditions: HEK293 cells versus HCT-116 cells, read-out: Ratio IC50
[7] = Cytotoxicity against human HEK293 cells assessed as inhibition of cell growth incubated for 48 hrs by SRB assay; assay type: toxicity, cell-based
[8] = Anticancer activity against mouse NIH3T3 cells; assay type: toxicity, cell-based
HT-29 = experiment: Anticancer activity against human HT-29 cells; assay type: functional, cell-based
MCF7 [9] = experiment: Anticancer activity against human MCF7 cells; assay type: functional, cell-based
SNB-19 = experiment: Anticancer activity against human SNB-19 cells; assay type: functional, cell-based
NCI-H226 = experiment: Anticancer activity against human NCI-H226 cells; assay type: functional, cell-based
Raji = experiment: Anticancer activity against human Raji cells; assay type: functional, cell-based
Jurkat = experiment: Anticancer activity against human Jurkat cells; assay type: functional, cell-based
DU-145 = experiment: Anticancer activity against human DU-145 cells; assay type: functional, cell-based
MCF7 [10] = experiment: Anticancer activity against human MCF7 cells assessed as effect on cell viability by SRB assay; assay type: functional, cell-based
[11] = Solubility of compound in SGF by UV absorbance based analysis; assay type: physicochemical
[12] = Solubility of compound in SIF by UV absorbance based analysis; assay type: physicochemical
[13] = Solubility of compound in water by UV absorbance based analysis; assay type: physicochemical

SMILES: C=C(C)[C@@H]1CCC(C)=C[C@H]1c1c(O)cc(CCCCC)c2c1OCN(C)C2
- selectivity ratio [1]: 1.6
- IC50 (MCF7 [2]): 7700 nM
- IC50 (HCT-116 [3]): 11700 nM
- inhibition at 20 µM (MCF7 [4]): 85.3%
- inhibition at 20 µM (HCT-116 [5]): 56.3%
- selectivity ratio [6]: 1.1
- IC50 at 48 h [7]: 12400 nM

SMILES: C=C(C)[C@@H]1CCC(C)=C[C@H]1C1=C(O)C(=O)C(CCCCC)=C(C)C1=O
- IC50 [8]: 449 nM
- IC50 (HT-29): 449 nM
- IC50 (MCF7 [9]): 449 nM
- IC50 (SNB-19): 449 nM
- IC50 (NCI-H226): 449 nM
- IC50 (Raji): 449 nM
- IC50 (Jurkat): 449 nM
- IC50 (DU-145): 449 nM

SMILES: C=C(C)[C@@H]1CCC(C)=C[C@H]1c1c(O)cc(CCCCC)c2c1OCN(CCC)C2
- selectivity ratio [1]: 3.5
- IC50 (MCF7 [2]): 6100 nM
- IC50 (HCT-116 [3]): 7300 nM
- inhibition at 20 µM (MCF7 [4]): 82.4%
- inhibition at 20 µM (HCT-116 [5]): 62.8%
- selectivity ratio [6]: 2.9
- IC50 at 48 h [7]: 21800 nM

SMILES: C=C(C)[C@@H]1CCC(C)=C[C@H]1c1c(O)cc(CCCCC)c2c1OCN(CC)C2
- selectivity ratio [1]: 1.9
- IC50 (MCF7 [2]): 8600 nM
- IC50 (HCT-116 [3]): 22100 nM
- inhibition at 20 µM (MCF7 [4]): 84.3%
- inhibition at 20 µM (HCT-116 [5]): 57.2%
- selectivity ratio [6]: 0.7
- IC50 at 48 h [7]: 16800 nM

SMILES: C=C(C)[C@@H]1CCC(C)=C[C@H]1c1c(O)cc(CCCCC)c2c1OCN(Cc1ccccc1)C2
- inhibition at 20 µM (MCF7 [4]): 46.5%
- inhibition at 20 µM (HCT-116 [5]): 52.3%

SMILES: C=C(C)[C@@H]1CCC(C)=C[C@H]1c1c(O)cc(CCCCC)c2c1OCN(c1ccc(C(C)C)cc1)C2
- inhibition at 20 µM (MCF7 [4]): 9.47%
- inhibition at 20 µM (HCT-116 [5]): 0%

SMILES: C=C(C)[C@@H]1CCC(C)=C[C@H]1c1c2c(c(CCCCC)c3c1OCN(CCCC)C3)CN(CCCC)CO2
- inhibition at 20 µM (MCF7 [4]): 0%
- inhibition at 20 µM (HCT-116 [5]): 0%

SMILES: C=C(C)[C@@H]1CCC(C)=C[C@H]1C1=C(O)C(=O)C(CCCCC)=CC1=O
- IC50 [8]: 449 nM
- IC50 (HT-29): 449 nM
- IC50 (MCF7 [9]): 449 nM
- IC50 (SNB-19): 449 nM
- IC50 (NCI-H226): 449 nM
- IC50 (Raji): 449 nM
- IC50 (Jurkat): 449 nM
- IC50 (DU-145): 449 nM

SMILES: C=C(C)[C@@H]1CCC(C)=C[C@H]1c1c(O)cc(CCCCC)c2c1OCN(c1cnc3ccccc3c1)C2
- inhibition at 20 µM (MCF7 [4]): 0%
- inhibition at 20 µM (HCT-116 [5]): 18%

SMILES: C=C(C)[C@@H]1CCC(C)=C[C@H]1c1c(O)cc(CCCCC)c2c1OCN(C1CCCCCC1)C2
- inhibition at 20 µM (MCF7 [4]): 74.8%
- inhibition at 20 µM (HCT-116 [5]): 50.9%

SMILES: COc1ccc(-c2oc3cc(OC)ccc3c2C(=O)c2ccc(C#N)cc2)cc1
- Activity (MCF7 [10]): inactive

SMILES: C=C(C)[C@@H]1CCC(C)=C[C@H]1c1c(O)cc(CCCCC)c2c1OCN(CCCN1CCOCC1)C2
- selectivity ratio [1]: 1.2
- IC50 (MCF7 [2]): 8800 nM
- IC50 (HCT-116 [3]): 12100 nM
- inhibition at 20 µM (MCF7 [4]): 76.8%
- inhibition at 20 µM (HCT-116 [5]): 58.5%
- selectivity ratio [6]: 0.8
- IC50 at 48 h [7]: 10600 nM

SMILES: C=C(C)[C@@H]1CCC(C)=C[C@H]1c1c(O)cc(CCCCC)c2c1OCN(c1ccc(OC(F)(F)F)cc1)C2
- inhibition at 20 µM (MCF7 [4]): 0%
- inhibition at 20 µM (HCT-116 [5]): 0%

SMILES: O=C(/C=C/C=C/c1ccc2c(c1)OCO2)N1CCCCC1 [PIPERINE]
- solubility [11]: 40 µg/mL (≈ 140 µM)
- solubility [12]: 60 µg/mL (≈ 210 µM)
- solubility [13]: 40 µg/mL (≈ 140 µM)

SMILES: C=C(C)[C@@H]1CCC(C)=C[C@H]1c1c(O)cc(CCCCC)c2c1OCN(C1CC1)C2
- inhibition at 20 µM (MCF7 [4]): 75.1%
- inhibition at 20 µM (HCT-116 [5]): 51.7%

SMILES: C=C(C)[C@@H]1CCC(C)=C[C@H]1c1c(O)cc(CCCCC)c2c1OCN(c1ccccc1)C2
- inhibition at 20 µM (MCF7 [4]): 5.3%
- inhibition at 20 µM (HCT-116 [5]): 4.09%

SMILES: Cc1ccc(Cn2nc(C(=O)N[C@@H]3C(C)(C)[C@@H]4CC[C@@]3(C)C4)cc2-c2ccc(Cl)c(C)c2)cc1
- Activity (MCF7 [10]): inactive

SMILES: C=C(C)[C@@H]1CCC(C)=C[C@H]1C1=C(OC)C(=O)C(CCCCC)=CC1=O
- IC50 [8]: 449 nM
- IC50 (HT-29): 449 nM
- IC50 (MCF7 [9]): 449 nM
- IC50 (SNB-19): 449 nM
- IC50 (NCI-H226): 449 nM
- IC50 (Raji): 449 nM
- IC50 (Jurkat): 449 nM
- IC50 (DU-145): 449 nM

SMILES: Oc1cc2c(cc1O)CN(C(=S)NCCc1ccc(Cl)cc1)CCC2
- Activity (MCF7 [10]): inactive

SMILES: CCCCCC1=CC(=O)C([C@@H]2C=C(C)CC[C@H]2C(C)C)=C(O)C1=O
- IC50 (Raji): 154 nM
- IC50 (Jurkat): 154 nM

SMILES: C=C(C)[C@@H]1CCC(C)=C[C@H]1c1c(O)cc(CCCCC)c2c1OCN(c1ccccc1F)C2
- inhibition at 20 µM (MCF7 [4]): 16.6%
- inhibition at 20 µM (HCT-116 [5]): 1.13%

SMILES: C=C(C)[C@@H]1CCC(C)=C[C@H]1c1c(O)cc(CCCCC)c2c1OCN(CCCCCC)C2
- selectivity ratio [1]: 2.4
- IC50 (MCF7 [2]): 9500 nM
- IC50 (HCT-116 [3]): 19800 nM
- inhibition at 20 µM (MCF7 [4]): 83%
- inhibition at 20 µM (HCT-116 [5]): 70.9%
- selectivity ratio [6]: 1.1
- IC50 at 48 h [7]: 23500 nM

SMILES: Cc1cc(C)c2nc(-c3ccccn3)cc(C(=O)Nc3ccc(S(=O)(=O)Nc4onc(C)c4C)cc3)c2c1
- Activity (MCF7 [10]): inactive

SMILES: O=C(Nc1ccccc1)c1cc([N+](=O)[O-])ccc1Cl
- Activity (MCF7 [10]): inactive

Reference: ChEMBL document CHEMBL6071200, “Discovery of Ring-Annulated Analogues of Cannabidiol as Potential Anticancer Agents: Synthesis and Biological Evaluation” (ACS Med Chem Lett, 2024)
